Like-named read-outs stand apart in the source and are kept apart here.

Series [1] in a line: Blood brain barrier permeation. In kind it is in vivo, ICR mice. To be noted: mouse, 10 mg/kg, oral once 10 mg/kg. The procedure: Using 9-week-old male ICR mice, the compounds obtained in the above Examples were orally administered once at a dose of 10 mg/kg or 30 mg/kg, and after 1 hr and 4 hrs, the concentrations of the compounds in the blood and brain of the mice were determined. 3 ICR mice were assigned in each group. Plasma was separated from the blood obtained after sacrificing the mice at each time, the brain of the mice was extracted, and the […] was washed with PBS, followed by pulverizing the brain tissue. The blood was placed in a test tube containing heparin to prevent coagulation and then was centrifuged at 12,000 rpm at 4° C. for 3 min to give a supernatant from which plasma was collected. Brain tissue was weighed, and the brain was pulverized using Dounce's homogenizer after adding 3 times as much volume of PBS as the brain weight. Each of the obtained analytical samples was quantitatively analyzed using a tandem liquid chromatography-mass spectrometer (Tandem LC/MS/MS, API3000 & Agilent 1100 series). Brain permeability of a compound is expressed as a value obtained by dividing the concentration of the compound in the brain by the concentration of the compound in the plasma (B/P ratio), and when the B/P ratio is greater than 1, it means that the concentration in the brain is higher than the one in the blood.

For another series, the target named is T1, CDK6/cyclinD3 (Homo sapiens, UniProt Q00534).
T1 construct: purchased Merck Millipore
T1 sequence (Q00534 whole entry): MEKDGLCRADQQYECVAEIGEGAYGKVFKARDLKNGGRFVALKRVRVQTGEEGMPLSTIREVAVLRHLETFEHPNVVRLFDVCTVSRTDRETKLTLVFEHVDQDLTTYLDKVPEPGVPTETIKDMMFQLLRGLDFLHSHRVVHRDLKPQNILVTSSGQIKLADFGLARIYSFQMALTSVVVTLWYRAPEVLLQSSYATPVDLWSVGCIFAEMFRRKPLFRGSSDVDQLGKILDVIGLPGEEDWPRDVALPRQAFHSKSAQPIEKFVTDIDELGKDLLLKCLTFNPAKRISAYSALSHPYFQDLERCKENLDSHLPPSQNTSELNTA
T1 sequence (P30281 whole entry partner): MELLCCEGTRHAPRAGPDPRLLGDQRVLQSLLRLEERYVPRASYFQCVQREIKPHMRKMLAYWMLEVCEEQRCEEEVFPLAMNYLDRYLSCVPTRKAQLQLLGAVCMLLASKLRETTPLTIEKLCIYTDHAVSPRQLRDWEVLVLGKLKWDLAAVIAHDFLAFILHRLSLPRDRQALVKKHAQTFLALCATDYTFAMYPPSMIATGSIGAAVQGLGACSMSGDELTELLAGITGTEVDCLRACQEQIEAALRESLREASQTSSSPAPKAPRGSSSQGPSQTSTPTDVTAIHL
The series is described as follows: Inhibition of CDK enzyme activity (ADP-Glo kinase assay). In kind it is biochemical. To be noted: 10 uM ATP, histone H1 substrate; read-out: IC50 CDK6/cyclinD. The procedure:
(§1) Test compounds were prepared by dissolving the compounds obtained in the above Examples in dimethylsulfoxide (DMSO) at a concentration of 10 mM. The test compounds were diluted to 200 nM, 50 nM, […], 3.13 nM, 0.78 nM, and 0.2 nM and used in an enzyme reaction.
(§2) CDK enzyme reaction was conducted in a buffer containing 50 mM Tris-HCl (pH 7.5), 10 mM MgCl2, 1 mM EGTA, 1 mM EDTA, and 2 mM DTT. CDK1/cyclinB, CDK2/cylcinE, CDK5/p25, and CDK6/cyclinD3 enzymes commercially available from Merck Millipore were used for CDK1, CDK2, CDK5, and CDK6 enzymes, respectively, and CDK4/cyclinD1 enzyme commercially available from Signalchem (US) was used for CDK4. For CDK1, a reaction proceeded by adding 10 nM CDK1/cyclinB and 0.125 mg/ml histone H1 (Merck Millipore) substrate to the buffer and then adding 10 uM ATP thereto. For CDK2, a reaction was proceeded by adding 10 nM CDK2/cyclinE and 0.125 mg/ml histone H1 substrate to the buffer and then adding 10 uM ATP thereto. For CDK5, a reaction was proceeded by adding 10 nM CDK5/p25 and 0.125 mg/ml histone H1 substrate to the buffer and then adding 10 uM ATP thereto. For CDK4, a reaction was proceeded by adding 20 nM CDK4/cyclinD1 and 0.125 mg/ml Rb protein (Merck Millipore) to the buffer and then adding 10 uM ATP thereto. For CDK6, a reaction was proceeded by adding 50 nM CDK6/cyclinD3 and 0.125 mg/ml histone H1 substrate to the buffer and then adding 10 uM ATP thereto. Each enzyme reaction was incubated at 30° C. for 60 min. Then, the amount of ADP produced was measured using Victor X4 instrument (Perkin Elmer) after generating luminescence using ADP-Glo kinase assay kit (Promega, US). An inhibition effect on each enzyme was represented as a percentage of the luminescence value in the presence of the test compounds relative to the luminescence value without the test compounds. IC50 (nM) is the concentration of the compound to inhibit 50% of the enzyme activity.

The target of another series is T2, CDK1/cyclinB (Homo sapiens, UniProt P06493).
T2 construct: purchased Merck Millipore
T2 sequence (P06493 whole entry): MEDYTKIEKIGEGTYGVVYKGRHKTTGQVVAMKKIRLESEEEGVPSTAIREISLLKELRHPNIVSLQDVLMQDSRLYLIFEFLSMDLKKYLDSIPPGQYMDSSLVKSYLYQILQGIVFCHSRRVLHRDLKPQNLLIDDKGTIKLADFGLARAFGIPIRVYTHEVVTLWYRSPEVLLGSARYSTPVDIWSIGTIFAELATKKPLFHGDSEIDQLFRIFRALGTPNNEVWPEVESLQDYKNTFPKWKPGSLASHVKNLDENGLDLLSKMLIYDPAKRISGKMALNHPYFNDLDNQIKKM
T2 sequence (P14635 whole entry partner): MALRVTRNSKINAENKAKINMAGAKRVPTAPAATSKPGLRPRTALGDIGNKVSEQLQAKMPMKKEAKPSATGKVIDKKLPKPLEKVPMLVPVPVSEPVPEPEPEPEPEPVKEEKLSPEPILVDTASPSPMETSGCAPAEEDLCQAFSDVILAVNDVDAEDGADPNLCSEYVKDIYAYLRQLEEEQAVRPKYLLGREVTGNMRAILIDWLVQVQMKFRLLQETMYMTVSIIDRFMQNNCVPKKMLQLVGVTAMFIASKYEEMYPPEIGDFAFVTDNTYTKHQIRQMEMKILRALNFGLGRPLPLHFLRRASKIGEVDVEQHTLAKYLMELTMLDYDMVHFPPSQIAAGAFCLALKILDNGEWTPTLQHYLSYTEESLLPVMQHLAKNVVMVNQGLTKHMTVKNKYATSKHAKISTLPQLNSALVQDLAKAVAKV
The description is as above. To be noted: 10 uM ATP, histone H1 substrate. In kind it is biochemical. The procedure:
as §1, §2

The target of another series is T3, CDK4/cyclinD1 (Homo sapiens, UniProt P11802).
T3 construct: purchased Signalchem (US)
T3 sequence (P11802 whole entry): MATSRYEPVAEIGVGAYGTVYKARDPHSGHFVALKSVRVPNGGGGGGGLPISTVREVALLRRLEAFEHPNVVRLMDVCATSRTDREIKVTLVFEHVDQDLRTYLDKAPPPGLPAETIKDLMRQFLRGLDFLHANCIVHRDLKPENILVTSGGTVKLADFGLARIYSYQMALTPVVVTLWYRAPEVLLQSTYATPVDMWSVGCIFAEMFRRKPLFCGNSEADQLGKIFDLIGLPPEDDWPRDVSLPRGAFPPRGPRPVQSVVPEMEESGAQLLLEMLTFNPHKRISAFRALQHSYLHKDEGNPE
T3 sequence (P24385 whole entry partner): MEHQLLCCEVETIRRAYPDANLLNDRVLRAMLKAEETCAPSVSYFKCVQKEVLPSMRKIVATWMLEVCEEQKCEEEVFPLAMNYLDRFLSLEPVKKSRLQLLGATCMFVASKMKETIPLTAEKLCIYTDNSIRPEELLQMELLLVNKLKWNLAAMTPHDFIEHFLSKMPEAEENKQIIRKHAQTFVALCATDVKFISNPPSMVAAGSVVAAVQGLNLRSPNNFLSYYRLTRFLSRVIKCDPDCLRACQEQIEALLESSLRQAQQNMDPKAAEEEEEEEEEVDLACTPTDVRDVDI
The series is described as above. The class given is biochemical. The conditions noted are these: 10 uM ATP, Rb protein substrate; read-out: IC50 CDK4/cyclinD. Here is the method:
as §1, §2

The next series has as its target T4, CDK2/cyclinE (Homo sapiens, UniProt P24941).
T4 construct: purchased Merck Millipore
The series is described as above. The class given is biochemical. To be noted: 10 uM ATP, histone H1 substrate. The procedure: as §1, §2

For the next series, the target named is T5, CDK5/p25 (Homo sapiens, UniProt Q00535).
T5 construct: purchased Merck Millipore
T5 sequence (Q00535 whole entry): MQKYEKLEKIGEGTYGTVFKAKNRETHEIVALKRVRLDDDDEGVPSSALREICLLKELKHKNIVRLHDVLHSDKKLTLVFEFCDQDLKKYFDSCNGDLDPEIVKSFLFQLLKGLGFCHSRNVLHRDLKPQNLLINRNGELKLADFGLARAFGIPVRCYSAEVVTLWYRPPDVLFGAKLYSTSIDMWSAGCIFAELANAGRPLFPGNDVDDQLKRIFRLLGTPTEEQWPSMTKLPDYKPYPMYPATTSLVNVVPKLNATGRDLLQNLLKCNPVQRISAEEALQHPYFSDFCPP
T5 sequence (Q15078 99-307 partner limits assumed): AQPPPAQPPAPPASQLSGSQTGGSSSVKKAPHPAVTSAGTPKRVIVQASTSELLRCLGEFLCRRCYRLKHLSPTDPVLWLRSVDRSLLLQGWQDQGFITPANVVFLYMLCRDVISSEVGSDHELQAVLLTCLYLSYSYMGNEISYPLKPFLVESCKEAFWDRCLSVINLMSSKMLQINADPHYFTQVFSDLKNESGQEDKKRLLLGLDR
The series is described as above. The class given is biochemical. The conditions noted are these: 10 uM ATP, histone H1 substrate. The procedure: as §1, §2

The next series relates to SK-N-SH. Description: Inhibition of cancer cell proliferation (MTT). The class given is cell-based, human. To be noted: Homo sapiens, SK-N-SH, 72 h. In short, it runs like this: (§3)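 Absorbance at 535 nm of DMSO-dissolved formazan (2 h MTT) gives viability versus 0.08% DMSO-treated cells, and GI50 is derived from eight concentrations between 0.004 and 10 uM. Exposure lasts 72 h at 37 °C, 5% CO2, using 3000 cells/well in 10% FBS medium ([…] for NCI-H23, otherwise DMEM).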

The subject of the next series is HCT116. The series is described as follows: Inhibition of cancer cell proliferation (MTT). In kind it is cell-based, human.
The next series deals with U-87MG. Description: Inhibition of cancer cell proliferation (MTT). The class given is cell-based, human. In short, it runs like this:
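Growth inhibition over 72 h was measured in attached cultures (3000 per well) with 0.08% DMSO as the control. Viable cells were detected with a 2 h MTT step, and the concentration giving 50% inhibition was taken as GI50.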

The next series concerns SH-SY5Y. The series is described as follows: Inhibition of cancer cell proliferation (MTT). The conditions noted are these: Homo sapiens, SH-SY5Y, 72 h. In kind it is cell-based, human. In short, it runs like this: as §3
The next series deals with T98G. The series is described as follows: Inhibition of cancer cell proliferation (MTT). The class given is cell-based, human. The method, boiled down:
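Plate 3000 cells/well and let them adhere for 16 h. Add compound (0.004, 0.013, 0.04, 0.12, 0.37, 1.1, 3.3, 10 uM; 0.08% DMSO) and culture for 72 h. Add MTT for 2 h, dissolve formazan in DMSO, read at 535 nm, and fit GI50.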

Series [2] deals with Human colon carcinoma HCT116 cell line. The series is described as follows: Tumor growth inhibition in an animal model (HCT116 xenograft). In kind it is in vivo, Balb/c nude mouse. To be noted: 100 mpk, oral daily for 12 days. The procedure:
Tumor size was measured twice a week using Caliper. […] A vehicle control was 20% propylene glycol (PG) and a positive control was Xeloda at 100 mg/kg.

A further series concerns Aβ (amyloid β protein). The series is described as follows: Inhibition of Aβ generation in B103/APP cells (Aβ42 ELISA). In kind it is cell-based. The conditions noted are these: Rattus norvegicus, 72 hrs. The procedure:
The APP gene was inserted into B103 cells so that APP could be stably expressed and the resulting B103/APP cells were used to confirm inhibition of APP phosphorylation and Aβ generation.
Further, to confirm whether Aβ generation is reduced due to APP phosphorylation inhibition, 5×10^5 B103/APP cells were cultured in a 6-well plate for 16 hrs. Afterwards, the compounds obtained in the above Examples were added at 100 nM, 75 nM, 50 nM, 25 nM, 12.5 nM to a medium containing 500 ug/ml of G418 and 0.5% FBS and incubated for 72 hrs. After 72 hrs, the amount of Aβ was quantified using the medium by Human Aβ42 ELISA kit (Invitrogen).

For the next series, the system named is A549. The series is described as follows: Inhibition of cancer cell proliferation (MTT). The class given is cell-based, human. The conditions noted are these: Homo sapiens, A549, 72 h. The method, boiled down: as §3
For another series, the system named is NCI-H23. The series is described as follows: Inhibition of cancer cell proliferation (MTT). To be noted: Homo sapiens, NCI-H23, 72 h. In kind it is cell-based, human. The method, boiled down:
as §3

For `Nc1nccc(-c2nc(-c3ccncc3)ccc2O)n1` [Example 12, 6-(2-aminopyrimidin-4-yl)-[2,4′-bipyridin]-5-ol], the concentration at 1 h in series [1] (male, ICR, brain, po, 1 hr, read-out: Concentration in the brain) was found to be 71.1 ng/g; in [1] (male, ICR, plasma, po, 1 hr, read-out: Concentration in the plasma) it was 17.3 ng/mL. Moreover, the concentration at 4 h in [1] (male, ICR, brain, po, 4 hrs, read-out: Concentration in the brain) was 9.1 ng/g; in [1] (male, ICR, plasma, po, 4 hrs, read-out: Concentration in the plasma), 2.6 ng/mL. Besides, the Kp at 1 h in series [1] (male, ICR, brain/plasma, po, 1 hr, read-out: B/P ratio) turned out to be 4.1. Also, the Kp at 4 h in series [1] (male, ICR, brain/plasma, po, 4 hrs, read-out: B/P ratio) came out at 3.54. The IC50 at CDK6/cyclinD3 is 50.7 nM; against CDK1/cyclinB, 12.6 nM; on CDK4/cyclinD1, above 200 nM; against CDK2/cyclinE, 6.6 nM; against CDK5/p25, 5.9 nM. Further, the GI50 turned out to be 420 nM in the series with SK-N-SH; 230 nM in the series on HCT116 (Homo sapiens, HCT-116, 72 h); 790 nM with U-87MG (Homo sapiens, U-87 MG, 72 h); 240 nM with SH-SY5Y; 1830 nM in the series on T98G (Homo sapiens, T98G, 72 h).

`CCCCCOC(=O)Nc1nc(=O)n([C@@H]2O[C@H](C)[C@@H](O)[C@H]2O)cc1F` [Xeloda, reference compound] returned a Tumor size in series [2] of 994.7 ± 405.5 mm^3. In series [2] (vs vehicle control), this compound showed a tumor growth inhibition of 46%.

As to `Nc1nccc(-c2nc(-c3ccnc(N)c3F)ccc2O)n1` [Example 66], the inhibition at 0.0125 µM in the series on Aβ (amyloid β protein) (12.5 nM) is 36.6%. Further, the inhibition at 0.025 µM with Aβ (amyloid β protein) (25 nM) is 46.6%. In the series on Aβ (amyloid β protein) (50 nM), this compound gave an inhibition at 0.05 µM of 75.9%. In the series with Aβ (amyloid β protein) (75 nM), the inhibition at 0.075 µM amounted to 100%. The inhibition at 0.1 µM with Aβ (amyloid β protein) (100 nM) came out at 100%. Also, the results for the B/P ratio in series [1] (1 hr) and in series [1] (4 hrs) were 2.44 and 2.93, respectively. Besides, the figures for the “Concentration in the brain” value in series [1] (1 hr) and in series [1] (4 hrs) were 80.5 ng/g and 58.9 ng/g, respectively. The figures for the “Concentration in the plasma” value in series [1] (1 hr) and in series [1] (4 hrs) were 32.9 ng/mL and 20.1 ng/mL, respectively. Moreover, the IC50 against CDK1/cyclinB is 0.6 nM; on CDK2/cyclinE it was 1 nM; against CDK5/p25 it was 0.3 nM. The 50% growth inhibitory concentration (GI50) with HCT116 (72 hrs) came out at 10 nM; in the series on U-87MG (72 hrs) it was 20 nM; in the series on A549, 30 nM; in the series with NCI-H23 it was 30 nM; with T98G (72 hrs), 30 nM.
